For 15 compounds, Ki results are on record in patent US9115117B2, “Substituted piperidine compounds and their use as orexin receptor modulators” (JANSSEN PHARMACEUTICA NV, priority 2013, dated 2015).

One test has as its target human orexin 2 receptor (Homo sapiens (Human), UniProt O43614). Put plainly: Human orexin 2 receptor radioligand binding ([3H]-EMPA). The note with it: HEK293 stably expressing human orexin 2 receptor; [3H]-EMPA; apparent Ki; read-out: hOX2 Ki. The method, then: After centrifugation (2K×G, 5 min at 4° C.), the supernatant was aspirated and the pellets frozen and stored at −80° C. […] Each cell pellet from a 15 cm plate was resuspended in 10 mL, stored on ice, and homogenized for 45 sec just prior to addition to the reactions. Competition binding experiments in 96 well polypropylene plates were performed using [^3H]-EMPA (Moraveck Corporation, specific activity=29.6 Ci/mmol), diluted to a 5 nM concentration in PBS (2 nM final concentration). […] The final concentration of DMSO in the reactions is equal to or less than 0.1%. Total and nonspecific binding was determined in the absence and presence of […]. The total volume of each reaction is 200 μL (20 μL of diluted compounds, 80 μL of [^3H]-EMPA diluted in PBS and 100 μL of the cell suspension).
The plates were washed 3 times by aspirating 30 ml PBS through the plates. Plates were dried in 55° C. oven for 60 min, scintillation fluid was added, and the radioactivity was counted on a Topcount (Packard).

Another test addresses human orexin 1 receptor (Homo sapiens, UniProt O43613). Briefly: Human orexin 1 receptor radioligand binding. The note with it: CHO cells stably expressing human orexin 1 receptor; apparent Ki; read-out: hOX1 Ki. Here is the method:
The in vitro affinity of the compounds of the invention for the rat/human orexin 1 and human orexin 2 receptors was determined by competitive radioligand binding using [^3H](1-(5-(2-fluoro-phenyl)-2-methyl-thiazol-4-yl)-1-((S)-2-(5-phenyl-(1,3,4)oxadiazol-2-ylmethyl)-pyrrolidin-1-yl)-methanone)(Langmead et al., 2004) and [^3H]EMPA (n-ethyl-2[96-methoxy-pyridin-3-yl)-(toluene-2-sulfonyl)-amino]-N-pyridin-3-ylmethyl acetamide), respectively (Langmead et al., 2004, British Journal of Pharmacology 141:340-346; Malherbe et al., 2004, British Journal of Pharmacology 156:1326-41).
Human Embryonic Kidney 293 cells (HEK293) stably expressing rat orexin 1 receptor (Genebank accession number NM_001525) or Chinese ovary cells (CHO) stably expressing human orexin 1 receptor (Genebank accession number NM_001526) were grown to confluency in DMEM (Hyclone, cat #SH30022), 10% FBS, 1× Pen/Strep, 1× sodium pyruvate, 10 mM HEPES, 600 µg/mL G418 and DMEM/F12 (Gibco, Cat #11039), 10% FBS, 1× Pen/Strep, 600 µg/mL G418 media, respectively on 150 cm^2 tissue culture plates, washed with 5 mM EDTA in PBS (HyClone Dulbecco's Phoshpate Buffered Saline 1× with Calcium and Magnesium, Cat #SH30264.01, hereafter referred to simply as PBS) and scraped into 50 ml tubes. After centrifugation (2K×G, 5 min at 4° C.), the supernatant was aspirated and the pellets frozen and stored at −80° C. Cells were resuspended in PBS in the presence of 1 tablet of protease inhibitor cocktail (Roche, Cat. #11836145001) per 50 mL. Each cell pellet from a 15 cm plate was resuspended in 10 mL, stored on ice, and homogenized for 45 sec prior to addition to the reactions. Competition binding experiments in 96 well polypropylene plates were performed using [^3H]-(1-(5-(2-fluoro-phenyl)-2-methyl-thiazol-4-yl)-1-((S)-2-(5-phenyl-(1,3,4)oxadiazol-2-ylmethyl)-pyrrolidin-1-yl)-methanone) (Moraveck Corporation, specific activity=35.3 Ci/mmol), diluted to a 10 nM concentration in PBS (4 nM final). […] The final concentration of DMSO in the reactions is equal to or less than 0.1%. Total and nonspecific binding was determined in the absence and presence of 10 μM almorexant. The total volume of each reaction is 200 μL (20 μL of diluted compounds, 80 μL of [3H]-(1-(5-(2-fluoro-phenyl)-2-methyl-thiazol-4-yl)-1-((S)-2-(5-phenyl-(1,3,4)oxadiazol-2-ylmethyl)-pyrrolidin-1-yl)-methanone) diluted in PBS and 100 μL of the cell suspension). Reactions were run for 60 min at room temperature and terminated by filtration through GF/C filter plates (PerkinElmer, Cat. #6005174) presoaked in 0.3% polyethylenimine using the cell harvester (PerkinElmer Filtermate). The plates were washed 3 times by aspirating 30 ml PBS through the plates. Plates were dried in 55° C. oven for 60 min, scintillation fluid was added, and the radioactivity was counted on a Topcount (Packard).

Another test concerns the target rat orexin 1 receptor (Rattus norvegicus, UniProt P56718). Put plainly: Rat orexin 1 receptor radioligand binding. The note with it: HEK293 cells stably expressing rat orexin 1 receptor; apparent Ki; read-out: rOX1 Ki. The method, then:
After centrifugation (2K×G, 5 min at 4° C.), the supernatant was aspirated and the pellets frozen and stored at −80° C. […] Each cell pellet from a 15 cm plate was resuspended in 10 mL, stored on ice, and homogenized for 45 sec prior to addition to the reactions. Competition binding experiments in 96 well polypropylene plates were performed using [^3H]-(1-(5-(2-fluoro-phenyl)-2-methyl-thiazol-4-yl)-1-((S)-2-(5-phenyl-(1,3,4)oxadiazol-2-ylmethyl)-pyrrolidin-1-yl)-methanone) (Moraveck Corporation, specific activity=35.3 Ci/mmol), diluted to a 10 nM concentration in PBS (4 nM final). […] The final concentration of DMSO in the reactions is equal to or less than 0.1%. Total and nonspecific binding was determined in the absence and presence of 10 μM almorexant. The total volume of each reaction is 200 μL (20 μL of diluted compounds, 80 μL of [3H]-(1-(5-(2-fluoro-phenyl)-2-methyl-thiazol-4-yl)-1-((S)-2-(5-phenyl-(1,3,4)oxadiazol-2-ylmethyl)-pyrrolidin-1-yl)-methanone) diluted in PBS and 100 μL of the cell suspension). […] The plates were washed 3 times by aspirating 30 ml PBS through the plates. Plates were dried in 55° C. oven for 60 min, scintillation fluid was added, and the radioactivity was counted on a Topcount (Packard).

pKi: −log10 of the molar value. Counter-ions that a name gives are not always drawn.

human orexin 2 receptor, sequence (O43614 whole entry): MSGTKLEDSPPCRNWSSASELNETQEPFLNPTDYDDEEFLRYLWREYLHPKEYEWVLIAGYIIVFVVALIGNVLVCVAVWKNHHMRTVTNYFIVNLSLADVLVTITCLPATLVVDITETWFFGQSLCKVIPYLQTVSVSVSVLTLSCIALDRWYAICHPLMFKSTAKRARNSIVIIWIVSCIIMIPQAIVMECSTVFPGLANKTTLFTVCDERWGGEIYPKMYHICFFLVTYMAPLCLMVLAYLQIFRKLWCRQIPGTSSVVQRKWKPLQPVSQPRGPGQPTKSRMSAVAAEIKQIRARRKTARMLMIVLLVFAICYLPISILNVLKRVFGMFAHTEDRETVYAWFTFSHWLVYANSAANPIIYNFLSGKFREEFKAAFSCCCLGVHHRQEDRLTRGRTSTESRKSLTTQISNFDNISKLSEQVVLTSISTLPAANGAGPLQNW

Turning to `Cc1cc(C)nc(N[C@@H]2CCCN(C(=O)c3ccc(F)cc3-n3nccn3)[C@H]2C)n1` (racemic) [Example 1, (±)-trans-(3-((4,6-dimethylpyrimidin-2-yl)amino)-2-methylpiperidin-1-yl)(4-fluoro-2-(2H-1,2,3-triazol-2-yl)phenyl)methanone], the figures for the pKi at human orexin 2 receptor and at human orexin 1 receptor were 6.54 and 5.99, respectively.
For `Cc1cc(C)nc(N[C@@H]2CCCN(C(=O)c3c(F)cccc3-c3ncccn3)[C@H]2C)n1` (racemic) [Example 2, (±)-trans-(3-((4,6-dimethylpyrimidin-2-yl)amino)-2-methylpiperidin-1-yl)(2-fluoro-6-(pyrimidin-2-yl)phenyl)methanone], the pKi was 6.66 on human orexin 2 receptor and 6.40 at human orexin 1 receptor.
Consider `Cc1cc(C)nc(N[C@@H]2CCCN(C(=O)c3c(F)cccc3-n3nccn3)[C@H]2C)n1` (racemic) [Example 3, (±)-trans-(3-((4,6-dimethylpyrimidin-2-yl)amino)-2-methylpiperidin-1-yl)(2-fluoro-6-(2H-1,2,3-triazol-2-yl)phenyl)methanone], for which the pKi was 6.59 at human orexin 2 receptor and 5.97 at human orexin 1 receptor.
Taken in the same sequence, the figures for `Cc1cc(C)nc(N[C@@H]2CCCN(C(=O)c3ccccc3-n3nccn3)[C@H]2C)n1` (racemic) [Example 4, (±)-trans-(2-(2H-1,2,3-triazol-2-yl)phenyl)(3-((4,6-dimethylpyrimidin-2-yl)amino)-2-methylpiperidin-1-yl)methanone] were 7.40 and 7.11.
Taken in the same sequence, the figures for `Cc1cc(C)nc(N[C@@H]2CCCN(C(=O)c3cc(F)ccc3-n3nccn3)[C@H]2C)n1` (racemic) [Example 5, (±)-trans-(3-((4,6-dimethylpyrimidin-2-yl)amino)-2-methylpiperidin-1-yl)(5-fluoro-2-(2H-1,2,3-triazol-2-yl)phenyl)methanone] were 6.94 and 6.25.
Consider `Cc1ccc(-n2nccn2)c(C(=O)N2CCC[C@@H](Nc3cc(C)nc(C(F)(F)F)n3)[C@@H]2C)c1` (racemic) [Example 8, (±)-trans-(5-methyl-2-(2H-1,2,3-triazol-2-yl)phenyl)(2-methyl-3-((6-methyl-2-(trifluoromethyl)pyrimidin-4-yl)amino)piperidin-1-yl)methanone], for which the results for the pKi on human orexin 2 receptor and at human orexin 1 receptor were 6.23 and 6.34, respectively.
For the compound `Cc1cc(N[C@@H]2CCCN(C(=O)c3cc(F)ccc3-c3ncccn3)[C@H]2C)nc(C(F)(F)F)n1` (racemic) [Example 9, (±)-trans-(5-fluoro-2-(pyrimidin-2-yl)phenyl)(2-methyl-3-((6-methyl-2-(trifluoromethyl)pyrimidin-4-yl)amino)piperidin-1-yl)methanone], the pKi was 5.69 on human orexin 2 receptor and 5.17 at human orexin 1 receptor.
In the same order, the values of `C[C@H]1[C@H](Nc2nccc(C(F)(F)F)n2)CCCN1C(=O)c1c(F)cccc1-n1nccn1` (racemic) [Example 10, (±)-trans-(2-fluoro-6-(2H-1,2,3-triazol-2-yl)phenyl)(2-methyl-3-((4-(trifluoromethyl)pyrimidin-2-yl)amino)piperidin-1-yl)methanone] are 6.84 and 6.50.
For `Cc1ccc(C(=O)N2CCC[C@@H](Nc3nccc(C(F)(F)F)n3)[C@@H]2C)c(-n2ccnn2)n1` (racemic) [Example 11, (±)-trans-(6-methyl-2-(1H-1,2,3-triazol-1-yl)pyridin-3-yl)(2-methyl-3-((4-(trifluoromethyl)pyrimidin-2-yl)amino)piperidin-1-yl)methanone], the pKi on human orexin 1 receptor was 5.05.
For the compound `Cc1ccc(C(=O)N2CCC[C@@H](Nc3ccc(C(F)(F)F)cn3)[C@@H]2C)c(-n2nccn2)c1` (racemic) [Example 13, (±)-trans-(4-methyl-2-(2H-1,2,3-triazol-2-yl)phenyl)(2-methyl-3-((5-(trifluoromethyl)pyridin-2-yl)amino)piperidin-1-yl)methanone], the pKi on human orexin 2 receptor is 6.04; at rat orexin 1 receptor, 7.82; at human orexin 1 receptor, 8.05.
For `C[C@H]1[C@H](Nc2ccc(C(F)(F)F)cn2)CCCN1C(=O)c1cc(Cl)ccc1-n1nccn1` (racemic) [Example 17, (±)-trans-(5-chloro-2-(2H-1,2,3-triazol-2-yl)phenyl)(2-methyl-3-((5-(trifluoromethyl)pyridin-2-yl)amino)piperidin-1-yl)methanone], the figures for the pKi at human orexin 2 receptor, at rat orexin 1 receptor and at human orexin 1 receptor were 6.66, 7.96 and 8.10, respectively.
For the compound `Cc1ccc(-c2ncccn2)c(C(=O)N2CCC[C@@H](Nc3ccc(C(F)(F)F)cn3)[C@@H]2C)n1` (racemic) [Example 23, (±)-trans-(2-methyl-3-((5-(trifluoromethyl)pyridin-2-yl)amino)piperidin-1-yl)(6-methyl-3-(pyrimidin-2-yl)pyridin-2-yl)methanone hydrochloride], the pKi is 6.68 at human orexin 2 receptor and 7.64 on human orexin 1 receptor.
Consider `C[C@H]1[C@H](Nc2ncc(Cl)cn2)CCCN1C(=O)c1ccccc1-n1nccn1` (racemic) [Example 30, (±)-trans-(2-(2H-1,2,3-triazol-2-yl)phenyl)(3-((5-chloropyrimidin-2-yl)amino)-2-methylpiperidin-1-yl)methanone], for which the pKi on rat orexin 1 receptor was 7.26; at human orexin 1 receptor it was 7.27.
For the compound `C[C@H]1[C@H](Nc2ncc(C(F)(F)F)cn2)CCCN1C(=O)c1ccccc1-n1nccn1` (racemic) [Example 35, (±)-trans-(2-(2H-1,2,3-triazol-2-yl)phenyl)(2-methyl-3-((5-(trifluoromethyl)pyrimidin-2-yl)amino)piperidin-1-yl)methanone], the pKi at human orexin 1 receptor was 7.54.
With `Cc1ccc(N[C@@H]2CCCN(C(=O)c3ccccc3-n3nccn3)[C@H]2C)nc1` (racemic) [Example 37, (±)-trans-(2-(2H-1,2,3-triazol-2-yl)phenyl)(2-methyl-3-((5-methylpyridin-2-yl)amino)piperidin-1-yl)methanone], the pKi on rat orexin 1 receptor was 7.12; at human orexin 1 receptor, 7.15.

As usually defined, the pKi is the negative decadic logarithm of the Ki, by convention in mol/L.
